Results from patent US8962674B2 (Tokyo Institute of Technology, priority 2006, dated 2015).

Row | Structure (SMILES) | melting point
1 | O=C(/C=C/c1ccc(O)cc1)CC(=O)/C=C/c1ccccc1-c1ccccc1 [CU472, (1E,6E)-1-(biphenyl-2-yl)-7-(4-hydroxyphenyl)hepta-1,6-diene-3,5-dione] | 180 to 188 °C
2 | COc1cc(/C=C/C(=O)CC(=O)/C=C/c2ccc(F)c(OC)c2)ccc1O [CU138, (1E,6E)-1-(4-fluoro-3-methoxyphenyl)-7-(4-hydroxy-3-methoxyphenyl)hepta-1,6-diene-3,5-dione] | 150 to 155 °C
3 | CCn1c2ccccc2c2cc(/C=C/C(=O)CC(=O)/C=C/c3ccc(OC)c(O)c3)ccc21 [CU108, (1E,6E)-1-(9-ethyl-9H-carbazol-3-yl)-7-(3-hydroxy-4-methoxyphenyl)hepta-1,6-diene-3,5-dione] | 100 to 103 °C
4 | CC(C)(C)OC(=O)Nc1ccc(/C=C/C(=O)CC(=O)/C=C/c2ccc(O)cc2)cc1 [CU405, (1E,6E)-1-[4-(tert-butoxycarbonylamino)phenyl]-7-(4-hydroxyphenyl)hepta-1,6-diene-3,5-dione] | 181 to 184 °C
5 | CCn1c2ccccc2c2cc(/C=C/C(=O)CC(=O)/C=C/c3ccc4c(c3)c3ccccc3n4CC)ccc21 [CU263, (1E,6E)-1,7-bis(9-ethyl-9H-carbazol-3-yl)hepta-1,6-diene-3,5-dione] | 264 to 267 °C
6 | COc1ccc(/C=C/C(=O)CC(=O)/C=C/c2ccccc2OC)cc1O [CU068, (1E,6E)-1-(3-hydroxy-4-methoxyphenyl)-7-(2-methoxyphenyl)hepta-1,6-diene-3,5-dione] | 102 to 108 °C
7 | CN(C)c1ccc(C(F)(F)F)cc1/C=C/C(=O)CC(=O)/C=C/c1ccc(O)cc1 [CU535, (1E,6E)-1-(2-dimethylamino-5-trifluoromethylphenyl)-7-(4-hydroxyphenyl)hepta-1,6-diene-3,5-dione] | 68 to 74 °C
8 | COc1ccc(/C=C/C(=O)CC(=O)/C=C/c2ccc(O)cc2)cc1O [CU027, (1E,6E)-1-(3-hydroxy-4-methoxyphenyl)-7-(4-hydroxyphenyl)hepta-1,6-diene-3,5-dione] | 207 to 210 °C
9 | Cc1ccc(S(=O)(=O)n2cc(/C=C/C(=O)CC(=O)/C=C/c3ccc(O)cc3)c3ccccc32)cc1 [CU403, (1E,6E)-1-(4-hydroxyphenyl)-7-(1-tosyl-1H-indol-3-yl)hepta-1,6-diene-3,5-dione] | 218 to 222 °C
10 | Cc1ccc(-n2cccc2/C=C/C(=O)CC(=O)/C=C/c2ccc(O)cc2)cc1 [CU338, (1E,6E)-1-(4-hydroxyphenyl)-7-[1-(4-methylphenyl)-1H-pyrrol-2-yl]hepta-1,6-diene-3,5-dione] | 144 to 150 °C
11 | CCN(CC)c1ccc(/C=C/C(=O)CC(=O)/C=C/c2ccc(O)c(OC)c2)c(OCc2ccccc2)c1 [CU437, (1E,6E)-1-(2-benzyloxy-4-diethylaminophenyl)-7-(4-hydroxy-3-methoxyphenyl)hepta-1,6-diene-3,5-dione] | 60 to 65 °C
12 | O=C(/C=C/c1ccc(O)cc1)CC(=O)/C=C/c1ccc(-c2ccccn2)cc1 [CU328, (1E,6E)-1-(4-hydroxyphenyl)-7-[4-(pyridin-2-yl)phenyl]hepta-1,6-diene-3,5-dione] | 229 to 232 °C
13 | CCN(CC)c1ccc(/C=C/C(=O)CC(=O)/C=C/c2ccc(O)cc2)c(OC(=O)c2ccccc2)c1 [CU425, (1E,6E)-1-(2-benzoyloxy-4-diethylaminophenyl)-7-(4-hydroxyphenyl)hepta-1,6-diene-3,5-dione] | 212 to 215 °C
14 | O=C(/C=C/c1ccc2c(c1)OCCO2)CC(=O)/C=C/c1ccc2c(c1)OCCO2 [CU356, (1E,6E)-1,7-bis(1,4-benzodioxan-6-yl)hepta-1,6-diene-3,5-dione] | 184 to 187 °C
15 | O=C(/C=C/c1ccc(O)cc1)CC(=O)/C=C/c1coc2ccccc2c1=O [CU407, (1E,6E)-1-(chromon-3-yl)-7-(4-hydroxyphenyl)hepta-1,6-diene-3,5-dione] | 227 to 231 °C
16 | COC(=O)c1ccc(/C=C/C(=O)CC(=O)/C=C/c2ccc(O)c(OC)c2)cc1 [CU316, (1E,6E)-1-(4-hydroxy-3-methoxyphenyl)-7-[4-(methoxycarbonyl)phenyl]hepta-1,6-diene-3,5-dione] | 149 to 152 °C
17 | COc1ccc(/C=C/C(=O)CC(=O)/C=C/c2ccco2)cc1O [CU211, (1E,6E)-1-(furan-2-yl)-7-(3-hydroxy-4-methoxyphenyl)hepta-1,6-diene-3,5-dione] | 120 to 123 °C
18 | COc1cc(O)ccc1/C=C/C(=O)CC(=O)/C=C/c1ccc(O)cc1 [CU083, (1E,6E)-1-(4-hydroxyphenyl)-7-(4-hydroxy-2-methoxyphenyl)hepta-1,6-diene-3,5-dione] | 105 to 110 °C
19 | COc1cc(/C=C/C(=O)CC(=O)/C=C/c2ccc3c(c2)OCCO3)ccc1O [CU209, (1E,6E)-1-(2,3-dihydrobenzo[1,4]dioxin-6-yl)-7-(4-hydroxy-3-methoxyphenyl)hepta-1,6-diene-3,5-dione] | 141 to 145 °C
20 | O=C(/C=C/c1ccc(O)cc1)CC(=O)/C=C/c1cccc(Br)c1 [CU464, (1E,6E)-1-(3-bromophenyl)-7-(4-hydroxyphenyl)hepta-1,6-diene-3,5-dione] | 156 to 160 °C

Row | Structure (SMILES) | melting point
21 | COc1ccc(/C=C/C(=O)CC(=O)/C=C/c2c(OC)ccc3ccccc23)cc1O [CU117, (1E,6E)-1-(3-hydroxy-4-methoxyphenyl)-7-(2-methoxynaphthalen-1-yl)hepta-1,6-diene-3,5-dione] | 150 to 155 °C
22 | COc1ccc(/C=C/C(=O)CC(=O)/C=C/c2cc(OC)c(OC)c(OC)c2)cc1O [CU205, (1E,6E)-1-(3-hydroxy-4-methoxyphenyl)-7-(3,4,5-trimethoxyphenyl)hepta-1,6-diene-3,5-dione] | 195 to 200 °C
23 | O=C(/C=C/c1cccnc1N1CCN(Cc2ccccc2)CC1)CC(=O)/C=C/c1cccnc1N1CCN(Cc2ccccc2)CC1 [CU385, (1E,6E)-1,7-bis[2-(4-benzylpiperazin-1-yl)pyridin-3-yl]hepta-1,6-diene-3,5-dione] | 150 to 155 °C
24 | O=C(/C=C/c1ccc2[nH]ccc2c1)CC(=O)/C=C/c1ccc2[nH]ccc2c1 [CU382, (1E,6E)-1,7-bis(1H-indol-5-yl)hepta-1,6-diene-3,5-dione] | 263 to 266 °C
25 | COc1cc(/C=C/C(=O)CC(=O)/C=C/c2ccc(Oc3ccccc3)cc2)ccc1O [CU004, (1E,6E)-1-(4-hydroxy-3-methoxyphenyl)-7-(4-phenoxyphenyl)hepta-1,6-diene-3,5-dione] | 45 to 46 °C
26 | O=C(/C=C/c1ccc(O)cc1)CC(=O)/C=C/c1cc(O)ccc1-c1ccccc1 [CU526, (1E,6E)-1-(4-hydroxybiphenyl-2-yl)-7-(4-hydroxyphenyl)hepta-1,6-diene-3,5-dione] | 179 to 186 °C
27 | CCN(CC)c1ccc(/C=C/C(=O)CC(=O)/C=C/c2ccc(N(CC)CC)cc2OC(C)C)c(OC(C)C)c1 [CU433, (1E,6E)-1,7-bis(4-diethylamino-2-isopropyloxyphenyl)hepta-1,6-diene-3,5-dione] | 63 to 66 °C
28 | COc1cc(/C=C/C(=O)CC(=O)/C=C/c2cccc3cccnc23)ccc1O [CU453, (1E,6E)-1-(4-hydroxy-3-methoxyphenyl)-7-(quinolin-8-yl)hepta-1,6-diene-3,5-dione] | 83 to 87 °C
29 | COc1ccc(/C=C/C(=O)CC(=O)/C=C/c2ccc(OC)c(O)c2)c(O)c1 [CU282, (1E,6E)-1-(2-hydroxy-4-methoxyphenyl)-7-(3-hydroxy-4-methoxyphenyl)hepta-1,6-diene-3,5-dione] | 147 to 152 °C
30 | O=C(/C=C/c1ccc(O)cc1Cl)CC(=O)/C=C/c1ccc(O)cc1Cl [CU362, (1E,6E)-1,7-bis(2-chloro-4-hydroxyphenyl)hepta-1,6-diene-3,5-dione] | 248 to 254 °C
31 | CN(C)c1ccc(/C=C/C(=O)CC(=O)/C=C/c2ccc(N(C)C)cc2Cl)c(Cl)c1 [CU412, (1E,6E)-1,7-bis(2-chloro-4-dimethylaminophenyl)hepta-1,6-diene-3,5-dione] | 238 to 241 °C
32 | O=C(/C=C/c1ccc(O)c(Cl)c1)CC(=O)/C=C/c1ccc(O)c(Cl)c1 [CU387, (1E,6E)-1,7-bis(3-chloro-4-hydroxyphenyl)hepta-1,6-diene-3,5-dione] | 203 to 208 °C
33 | CN1CCN(c2ccc(/C=C/C(=O)CC(=O)/C=C/c3ccc(N4CCN(C)CC4)cc3)cc2)CC1 [CU386, (1E,6E)-1,7-bis[4-(4-methylpiperazin-1-yl)phenyl]hepta-1,6-diene-3,5-dione] | 212 to 217 °C
34 | COc1ccc(/C=C/C(=O)CC(=O)/C=C/c2ccc(C)c(C)c2)cc1O [CU058, (1E,6E)-1-(3,4-dimethylphenyl)-7-(3-hydroxy-4-methoxyphenyl)hepta-1,6-diene-3,5-dione] | 150 to 154 °C
35 | Nc1ccc(OCc2ccccc2)cc1/C=C/C(=O)CC(=O)/C=C/c1ccc(O)cc1 [CU489, (1E,6E)-1-(2-amino-5-benzyloxyphenyl)-7-(4-hydroxyphenyl)hepta-1,6-diene-3,5-dione] | 175 to 179 °C
36 | Cc1ccc(Oc2ncccc2/C=C/C(=O)CC(=O)/C=C/c2ccc(O)cc2)cc1 [CU340, (1E,6E)-1-(4-hydroxyphenyl)-7-[2-(4-methylphenoxy)pyridin-3-yl]hepta-1,6-diene-3,5-dione] | 180 to 185 °C
37 | COCOc1cccc(O)c1/C=C/C(=O)CC(=O)/C=C/c1ccc(OC)c(O)c1 [CU313, (1E,6E)-1-[2-hydroxy-6-(methoxymethoxy)phenyl]-7-(3-hydroxy-4-methoxyphenyl)hepta-1,6-diene-3,5-dione] | 89 to 93 °C
38 | COc1cc(/C=C/C(=O)CC(=O)/C=C/c2ccc3ccn(Cc4ccccc4)c3c2)ccc1O [CU443, (1E,6E)-1-(1-benzyl-1H-indol-6-yl)-7-(4-hydroxy-3-methoxyphenyl)hepta-1,6-diene-3,5-dione] | 180 to 184 °C
39 | O=C(/C=C/c1cc(O)ccc1Br)CC(=O)CCc1ccc(O)cc1 [CU549, (E)-1-(2-bromo-5-hydroxyphenyl)-7-(4-hydroxyphenyl)hept-1-ene-3,5-dione] | 161 to 165 °C
40 | COc1ccc(/C=C/C(=O)CC(=O)/C=C/c2cccc(OC)c2O)cc1O [CU273, (1E,6E)-1-(2-hydroxy-3-methoxyphenyl)-7-(3-hydroxy-4-methoxyphenyl)hepta-1,6-diene-3,5-dione] | 155 to 157 °C
